# How the values were obtained:
# [1] = tested on: ICR mice; assay: 52° C. warm-water tail-flick test, acute morphine tolerance; type: in vivo; details: oral administration following subcutaneous injection of morphine
# Procedure: Basal nociception and morphine-induced antinociception were studied using the 52° C. warm-water tail-flick test. In brief, mice were held over the water bath and one third of the distal portion of the tail was immersed into the water. The latency to a quick tail-flick response was recorded as a base-line measurement. Any mouse not responding within 5 sec was excluded from further experiment. To prevent tissue damage, a cut-off time of 12 sec was applied. Morphine-induced antinociception was evaluated 30 min after the injection of a testing dose of morphine (10 mg/kg s.c.), and expressed as the percentage of maximal possible effect (% MPE) according to the following formula: % MPE=100×(postdrug latency−predrug latency)/(cut off−predrug latency)
# To induce acute tolerance and dependence, separate groups of three ICR mice (20-25 g) were treated with a large dose of morphine (100 mg/kg s.c.). Maximal morphine tolerance and dependence peaked at approximately 4 to 6 h. Mice in the control group received an equal volume of saline. Tolerance to opioids was assessed 4.5 h later by monitoring the antinociceptive effect produced by a test dose of morphine (10 mg/kg, s.c.). The presence of opioid tolerance was signified by a significant reduction of antinociceptive effect. […] Mice were immediately placed inside glass cylinders, and naloxone-induced vertical jumps were recorded for 15 min. […]
# [2] = tested on: ICR mice; assay: Hot plate test, acute morphine tolerance; type: in vivo; details: oral administration following subcutaneous injection of morphine
# Procedure: For assessment of response latencies to thermal stimulus in mice, a Cold/Hot Plate Analgesia Meter (Ugo Basile, Comerio, Italy) was used. In this study, mice were placed on a hot plate that was thermostatically maintained at 55±1° C. The nociceptive response was evaluated as the latency to the first licking or lifting of the rear paws or escape jumping. Mice were removed from the hot plate immediately after displaying the response and a cut-off time of 30 sec was set to prevent tissue damage. The anti-nociceptive effect was measured using the same percentage of maximal possible effect (% MPE) as above.
# To induce acute tolerance and dependence, separate groups of three ICR mice (20-25 g) were treated with a large dose of morphine (100 mg/kg s.c.). Maximal morphine tolerance and dependence peaked at approximately 4 to 6 h. Mice in the control group received an equal volume of saline. Tolerance to opioids was assessed 4.5 h later by monitoring the antinociceptive effect produced by a test dose of morphine (10 mg/kg, s.c.). The presence of opioid tolerance was signified by a significant reduction of antinociceptive effect. To examine dependence on opioids, mice were challenged with naloxone (10 mg/kg i.p.) 5h after the administration of morphine (100 mg/kg s.c.). Mice were immediately placed inside glass cylinders, and naloxone-induced vertical jumps were recorded for 15 min. […]
compound,measurement,setting,value
"COc1cc(C=CC(=O)CC(=O)C=Cc2ccc(O)c(OC)c2)ccc1O [unformulated curcumin, 1,7-bis-(4-hydroxy-3-methoxyphenyl)-1,6-heptadiene-3,5-dione]",Analgesia in tail-flick test,[1],minimal effect
same,Analgesia in hot plate test,[2],minimal effect

# — patent US10940118B2, “Nanoparticles and methods of producing the same” (THE BOARD OF TRUSTEES OF THE UNIVERSITY OF ILLINOIS, priority 2013, dated 2021)
